Our source for the IC50 values is US20020132853A1, “Capsaicin receptor ligands” (priority 2000, published 2002).

SMILES strings stand for the structures.

This assay deals with T1, human capsaicin receptor (Homo sapiens, UniProt Q8NER1).
T1 construct: expression consrtuct encoding the full length human capsaicin receptor; expressed in transfected cells
T1 sequence (Q8NER1 whole entry): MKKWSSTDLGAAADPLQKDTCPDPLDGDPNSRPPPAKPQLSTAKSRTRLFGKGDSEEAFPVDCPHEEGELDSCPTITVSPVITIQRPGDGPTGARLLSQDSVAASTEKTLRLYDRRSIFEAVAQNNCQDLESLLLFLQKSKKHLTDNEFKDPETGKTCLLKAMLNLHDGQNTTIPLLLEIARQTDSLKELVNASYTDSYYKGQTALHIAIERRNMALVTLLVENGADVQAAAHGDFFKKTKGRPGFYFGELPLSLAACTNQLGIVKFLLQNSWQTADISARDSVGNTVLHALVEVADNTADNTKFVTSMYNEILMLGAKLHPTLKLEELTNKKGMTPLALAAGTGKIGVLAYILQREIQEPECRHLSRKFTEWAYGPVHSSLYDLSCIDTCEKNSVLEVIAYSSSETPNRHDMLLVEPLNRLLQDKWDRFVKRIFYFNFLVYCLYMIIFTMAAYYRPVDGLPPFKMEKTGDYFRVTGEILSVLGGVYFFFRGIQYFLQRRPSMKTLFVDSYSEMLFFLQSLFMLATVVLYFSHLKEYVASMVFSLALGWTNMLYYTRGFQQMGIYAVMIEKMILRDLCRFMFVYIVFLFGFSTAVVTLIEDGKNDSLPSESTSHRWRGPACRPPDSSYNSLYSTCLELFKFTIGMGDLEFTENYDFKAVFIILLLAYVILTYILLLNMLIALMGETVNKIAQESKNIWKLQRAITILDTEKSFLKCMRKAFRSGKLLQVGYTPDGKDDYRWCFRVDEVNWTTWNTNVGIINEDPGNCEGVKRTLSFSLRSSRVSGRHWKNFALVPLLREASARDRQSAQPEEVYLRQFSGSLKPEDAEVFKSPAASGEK
Briefly: Antagonist assay for Capsaicin receptor mediated calcium mobilization. The class given is cell-based. To be noted: Table III, read-out: EC50 (the source's name). Here is the method: Calcium Mobilization Assay
Cells transfected with expression plasmids (as described in Example 10) and thereby expressing the human capsaicin receptor are seeded and grown to 70-90% confluency in FALCON black-walled, clear-bottomed 96-well plates (#3904, BECTON-DICKINSON, Franklin Lakes, N.J.) . The culture media are emptied from the 96 well plates and FLUO-3 AM calcium sensitive dye (Molecular Probes, Eugene, OR) is added to each well (dye solution: 1 mg FLUO-3 AM, 440 uL DMSO and 440 ul 20% pluronic acid in DMSO, diluted 1:4, 50 ul diluted solution per well). Plates are covered with aluminum foil and incubated at 37° C for 1-2 hours in an environment containing 5% CO2. After the incubation the dye is emptied from the plates, and the cells are washed once with Krebs-Ringer HEPES (KRH) buffer (25 mM HEPES, 5 mM KCl, 0.96 mM NaH2PO4, 1 MM MgSO4, 2 mM CaCl2, 5 mM glucose, 1 mM probenecid, pH 7.4), and resuspended in KRH buffer.
Agonist (e.g., olvanil, capsaicin, or RTX)-induced calcium mobilization is monitored using either FLUOROSKAN ASCENT (Labsystems, Franklin, Mass.) or FLIPR (fluorometric imaging plate reader system, Molecular Devices, Sunnyvale, Calif.) instruments. Similarly, varying concentrations of the antagonists ruthenium red or capsazepine are added to cells concurrently with agonist (e.g., 25-50 nM capsaicin). For agonist-induced calcium responses, data obtained between 30 and 60 seconds after agonist application are used to generate the EC50 values. […] software (Synergy Software, Reading, Pa.) was utilized to fit the data to the equation: […]
to determine the EC50 for the response. In this equation, y is the maximum fluorescence signal, x is the concentration of the agonist or antagonist, a is the Emax, b corresponds to the EC50 or IC50 value, and finally, c is the Hill coefficient.
Assay for Determination of Capsaicin Receptor Antagonist Effects
In order to measure the ability of a test compound to antagonize (inhibit) the response of cells expressing capsaicin receptors to capsaicin or other vanilloid agonist, the EC50 of capsaicin is first determined.
An additional 20 ul of KRH buffer and 1 ul DMSO is added to each well of cells, prepared as described above. 100 ul capsaicin in KRH buffer is automatically transferred by the FLIPR instrument to each well.
Test compounds are dissolved in DMSO, diluted in 20 ul KRH buffer so that the final concentration of test compounds in the assay well is between 1 uM and 5 uM, and added to cells prepared as described above. The 96 well plates containing prepared cells and test compounds are incubated in the dark, at room temperature for 0.5-6 hours. It is important that the incubation not continue beyond 6 hours. Just prior to determining the fluorescence response, 100 ul capsaicin in KRH buffer at twice the EC50 concentration determined from the concentration response curve is automatically added by the FLIPR instrument to each well of the 96 well plate for a final sample volume of 200 ul and a final capsaicin concentration equal to the EC50. The final concentration of test compounds in the assay wells is between 1 uM and 5 uM. […] Antagonists of the capsaicin receptor decrease this response by about 20%, preferably by about 50%, and most preferably by at least 80% as compared to matched control. The concentration of antagonist required to provide a 50% decrease is the EC50 for the antagonist (also referred to as the IC50).
In general terms: Calcium flux is commonly read through the fluorescence of an indicator in the cells.
In the case of `C[C@@H]1CN(c2ncccc2Cl)CCN1C(=O)Nc1ccc(C2CCCCC2)cc1` [Compound 18, (2R)-4-(3-chloropyridin-2-yl)-N-(4-cyclohexylphenyl)-2-methylpiperazine-1-carboxamide], the IC50 was below 1000 nM.

Turning to `C[C@@H]1CN(c2ncccc2Cl)CCN1C(=O)Nc1ccc(C(F)(F)F)cc1` [Compound 20, (2R)-4-(3-chloropyridin-2-yl)-2-methyl-N-[4-(trifluoromethyl)phenyl]piperazine-1-carboxamide], the IC50 was below 1000 nM.

Regarding `C[C@@H]1CN(c2ncccc2Cl)CCN1C(=O)Nc1ccc(C(C)(C)C)cc1` [Compound 21, (2R)-N-(4-tert-butylphenyl)-4-(3-chlorpyridin-2-yl)-2-methylpiperazine-1-carboxamide], the IC50 is below 1000 nM.

Consider `CC(C)c1ccc(NC(=O)N2CCN(c3ncccc3Cl)C[C@H]2C)cc1` [Compound 22, (2R)-4-(3-chloropyridin-2-yl)-N-(4-isopropylphenyl)-2-methylpiperazine-1-carboxamide], for which the IC50 was below 1000 nM.

For the molecule `C[C@H]1CN(c2ncccc2Cl)CCN1C(=O)Nc1ccc(C(F)(F)F)cc1` [Compound 23, (2S)-4-(3-chloropyridin-2-yl)-N-(4-trifluoromethylphenyl)-2-methylpiperazine-1-carboxamide], the IC50 was below 1000 nM.

Consider `C[C@H]1CN(c2ncccc2Cl)CCN1C(=O)Nc1ccc(C(C)(C)C)cc1` [Compound 24, (2S)-N-(4-tert-butylphenyl)-4-(3-chloropyridin-2-yl)-2-methylpiperazine-1-carboxamide], for which the IC50 was below 1000 nM.

Take `C[C@@H]1CN(c2ncccc2Cl)CCN1C(=O)Nc1ccc(N2CCCCC2)cc1` [Compound 26, (2R)-4-(3-chloropyridin-2-yl)-2-methyl-N-(4-piperidin-1-ylphenyl)piperazine-1-carboxamide]: the IC50 was below 1000 nM.

In the case of `C[C@@H]1CN(c2ncccc2Cl)CCN1C(=O)Nc1ccc(C(F)(F)F)cc1F` [Compound 27, (2R)-4-(3-chloropyridin-2-yl)-N-[2-fluoro-4-(trifluoromethyl)phenyl]-2-methylpiperazine-1-carboxamide], the IC50 was below 1000 nM.

Regarding `C[C@@H]1CN(c2ncccc2C(F)(F)F)CCN1C(=O)Nc1ccc(C(F)(F)F)cc1` [Compound 28, (2R)-2-methyl-N-[4-(trifluoromethyl)phenyl]-4-[3-(trifluoromethyl)pyridin-2-yl]piperazine-1-carboxamide], the IC50 was below 1000 nM.

As for `C[C@@H]1CN(c2ncccc2C(F)(F)F)CCN1C(=O)Nc1ccc(C(C)(C)C)cc1` [Compound 29, (2R)-N-(4-tert-butylphenyl)-2-methyl-4-[3-(trifluoromethyl)pyridin-2-yl]piperazine-1-carboxamide], the IC50 was below 1000 nM.

Consider `CC(C)c1ccc(NC(=O)N2CCN(c3ncccc3C(F)(F)F)C[C@H]2C)cc1` [Compound 30, (2R)-N-(4-isopropylphenyl)-2-methyl-4-[3-(trifluoromethyl)pyridin-2-yl]piperazine-1-carboxamide], for which the IC50 is below 1000 nM.

Consider `CC1CN(c2ncccc2Cl)CC(C)N1C(=O)Nc1ccc(C(F)(F)F)cc1` (stereo not drawn) [Compound 31, 4-(3-chloropyridin-2-yl)-2,6-dimethyl-N-[4-(trifluoromethyl)phenyl]piperazine-1-carboxamide], for which the IC50 is below 1000 nM.

`CC1CN(c2ncccc2Cl)CC(C)N1C(=O)Nc1ccc(C(C)(C)C)cc1` (stereo not drawn) [Compound 32, N-(4-tert-butylphenyl)-4-(3-chloropyridin-2-yl)-2,6-dimethylpiperazine-1-carboxamide]: the IC50 is below 1000 nM.

Consider `CC(C)c1ccc(NC(=O)N2C(C)CN(c3ncccc3Cl)CC2C)cc1` (stereo not drawn) [Compound 33, 4-(3-chloropyridin-2-yl)-N-(4-isopropylphenyl)-2,6-dimethylpiperazine-1-carboxamide], for which the IC50 is below 1000 nM.

In the case of `C[C@@H]1CN(c2ncccc2C(F)(F)F)CCN1C(=O)Nc1ccc(C2CCCCC2)cc1` [Compound 34, (2R)-N-(4-cyclohexylphenyl)-2-methyl-4-[3-(trifluoromethyl)pyridin-2-yl]piperazine-1-carboxamide], the IC50 was below 1000 nM.

For `CC1CN(c2ncccc2Cl)CC(C)N1C(=O)Nc1ccc(C2CCCCC2)cc1` (stereo not drawn) [Compound 35, 4-(3-chloropyridin-2-yl)-N-(4-cyclohexylphenyl) 2,6-dimethylpiperazine-1-carboxamide], the IC50 was below 1000 nM.

For `C[C@@H]1CN(c2ncccc2Cl)CCN1C(=O)Nc1ccc(C2CCCC2)cc1` [Compound 36, (2R)-4-(3-chloropyridin-2-yl)-N-(4-cyclopentylphenyl)-2-methylpiperazine-1-carboxamide], the IC50 was below 1000 nM.

Consider `C[C@@H]1CN(c2ncccc2C(F)(F)F)CCN1C(=O)Nc1ccc(C2CCCC2)cc1` [Compound 37, (2R)-N-(4-cyclopentylphenyl)-2-methyl-4-[3-(trifluoromethyl)pyridin-2-yl]piperazine-1-carboxamide], for which the IC50 was below 1000 nM.

As to `C[C@@H]1CN(c2nccc3ccccc23)CCN1C(=O)Nc1ccc(C(F)(F)F)cc1` [Compound 38, (2R)-4-isoquinolin-1-yl-2-methyl-N-[4-(trifluoromethyl)phenyl]piperazine-1-carboxamide], the IC50 was below 1000 nM.

In the case of `C[C@@H]1CN(c2nccc3ccccc23)CCN1C(=O)Nc1ccc(C(C)(C)C)cc1` [Compound 39, (2R)-N-(4-tert-butylphenyl)-4-isoquinolin-1-yl-2-methylpiperazine-1-carboxamide], the IC50 was below 1000 nM.

On to `CC(C)c1ccc(NC(=O)N2CCN(c3nccc4ccccc34)C[C@H]2C)cc1` [Compound 40, (2R)-N-(4-isopropylphenyl)-4-isoquinolin-1-yl-2-methylpiperazine-1-carboxamide], for which the IC50 was below 1000 nM.

As for `C[C@@H]1CN(c2nccc3ccccc23)CCN1C(=O)Nc1ccc(C2CCCC2)cc1` [Compound 41, (2R)-N-(4-cyclopentylphenyl)-4-isoquinolin-1-yl-2-methylpiperazine-1-carboxamide], the IC50 is below 1000 nM.

As for `C[C@@H]1CN(c2nccc3ccccc23)CCN1C(=O)Nc1ccc(C2CCCCC2)cc1` [Compound 42, (2R)-N-(4-cyclohexylphenyl)-4-isoquinolin-1-yl-2-methylpiperazine-1-carboxamide], the IC50 was below 1000 nM.

As to `C[C@@H]1CN(c2ncccc2N(C)C)CCN1C(=O)Nc1ccc(C(C)(C)C)cc1` [Compound 43, (2R)-N-(4-tert-butylphenyl)-4-[3-(dimethylamino)pyridin-2-yl]-2-methylpiperazine-1-carboxamide], the IC50 was below 1000 nM.

Consider `C[C@@H]1CN(c2ncccc2N(C)C)CCN1C(=O)Nc1ccc(C(F)(F)F)cc1` [Compound 44], for which the IC50 is below 1000 nM.

`COc1cccnc1N1CCN(C(=O)Nc2ccc(C(C)(C)C)cc2)[C@H](C)C1` [Compound 45, (2R)-N-(4-tert-butylphenyl)-4-(3-methoxypyridin-2-yl)-2-methylpiperazine-1-carboxamide]: the IC50 is below 1000 nM.

Turning to `COc1cccnc1N1CCN(C(=O)Nc2ccc(C3CCCCC3)cc2)[C@H](C)C1` [Compound 47, (2R)-N-(4-cyclohexylphenyl)-4-(3-methoxypyridin-2-yl)-2-methylpiperazine-1-carboxamide], the IC50 is below 1000 nM.
